Experimental data published in article PMC9975698, “Hyperoside alleviates toxicity of β-amyloid via endoplasmic reticulum-mitochondrial calcium signal transduction cascade in APP/PS1 double transgenic Alzheimer's disease mice” (Redox Biology, 2023).

How the values were obtained:
Solubility in water = assay type: physicochemical
APP/PS1 mice [1] = assay: GFAP immunofluorescent staining of brain tissues; assay type: in vivo; details: cortex and hippocampus, HYP nasal, 8 weeks
Method: All animal care and experimental procedures were performed in accordance with the “Institutional Animal Care and User Committee Guidelines” of the Macau University of Science and Technology. APP/PSEN1 (APP/PS1) mice (N000175) were purchased from the Nanjing Institute of Biomedical Sciences, Nanjing University, China, weighing 25 ± 5 g. The animals were housed in a temperature-controlled room with a 12 h light/dark cycle and given ad libitum food and water. Male mice were randomly divided into the following 6 experimental groups. (a) wild-type group (n = 6), (b) APP/PS1 group (n = 6), (c) HYP (20 mg/kg group) (n = 7), (d) HYP (40 mg/kg) group (n = 8), (e) HYP (80 mg/kg) group (n = 8) and (f) memantine (MEM) (10 mg/kg) positive control group (n = 8). HYP was dissolved in the solvent containing 10% DMSO, 40% PEG300 and 5% Tween-80 in PBS, and administrated via nasal injection for every 3 days with a volume of 0.5 μL/g of body weight for 8 consecutive weeks. Brain tissues from all treatment groups were fixed and embedded in paraffin for microtome sectioning and immunofluorescence staining. […] The coverslips were then mounted with FluorSave™ mounting media (Calbiochem, San Diego, CA, USA) for fluorescence imaging. […]

APP/PS1 mice [2] = assay: RT-PCR validation of calcium-related genes in mice; assay type: in vivo; details: HYP group compared to APP/PS1 group
Method: To investigate the molecular mechanism of HYP, initial data (36,668 raw reads) obtained from the RNA sequencing were performed. […] In GO classification, the unigenes were annotated in three major categories (Fig. 8B). […] For the biological process category, most of the unigenes were matched to immune and signaling processes. For the cellular component category, most of the unigenes were assigned to cell and cell part. For the molecular function category, binding activity accounted for the largest proportion. […] Gene set enrichment analysis (GSEA) has been extensively applied to identify underlying pathways. In Fig. 8D, GSEA analysis of calcium channels was performed in conjunction with the previous AD hypothesis. Next, the relative expression levels of the hub genes in the APP and HYP-treated mice groups were examined by RT-PCR analysis.

HT22 cells = assay: Real time mitochondrial membrane potential (rhodamine 123); assay type: cell-based; details: rhodamine 123-stained HT22 cells, Aβ 30 μM with HYP 20, 40, 80 μM
Excerpt: Disruption of RyR2 regulation in the ER mediates the most important signal transduction cascade responses associated with AD [24]. RyR2 channels are implicated in many cellular functions, particularly mitochondrial metabolism. As confirmed in previous section (Fig. 9G), the expression of mRNA for MCU was decreased in RyR2 knockdown cells. […] Therefore, the role of HYP in regulating Aβ-induced ER-mitochondrial Ca^2+ homeostasis and apoptosis were further validated. […] It was reported that mitochondrial calcium level affects cellular energy by activating oxidative metabolism, mitochondrial respiration and ATP synthesis. […] To further verify the result, the membrane potential was stained with a more sensitive dye, JC-1 (Fig. 10C). JC-1 is a dual-emission mitochondrial membrane potential sensing dye, which is accumulated and aggregated in polarized (normal) mitochondria with excitation and emission in the red spectrum at ∼590 nm. […] It is noteworthy that increased mitochondrial calcium influx can trigger apoptosis. To further explore the protective role of HYP in Aβ -induced neuronal cell death, HT22 cells were co-treated with Aβ aggregates and HYP for 24 h. The expression level of selected apoptotic markers including Bcl-2, Bax and cyto-c were detected by Western blot (Fig. 10E).

O=c1c(O[C@@H]2O[C@H](CO)[C@H](O)[C@H](O)[C@H]2O)c(-c2ccc(O)c(O)c2)oc2cc(O)cc(O)c12 [HYP, Quercetin-3-O-β-D-galactopyranoside]
solubility in water (Solubility in water): insoluble in water | level of GFAP (APP/PS1 mice [1]): decreased the level of GFAP in both the cortex and hippocampus | mRNA expression levels of calcium-related genes (APP/PS1 mice [2]): mRNA expression levels of Cav2.3, Cav1.3, NCLX and TRPV4 were decreased | mitochondrial membrane potential, real time (HT22 cells): attenuated the decrease of membrane potential triggered by Aβ
